Experiment [1] relates to HUVEC cells. Put plainly: MTT cytotoxicity assay of yCD series protein combined with 5-FC. The class given is cell-based. The settings on record: Homo sapiens, 5-FU alone. As to the method: (§1) The cell viability was determined by MTT assay. The seeded HUVEC cells shown in FIG. 7A, the seeded U87MG cells shown in FIG. 7B and the 96 wells of seeded MCF-7 cells shown in FIG. 7C are respectively added with 500 nM RGD4C-yCD, yCD, RGD4C-yCD/UPRT and yCD/UPRT recombinant protein, after removing the recombinant protein not bound with the cells and washing the cells, add 5-FC with different concentrations and observe the cell killing effect. Cells of the control groups were only incubated with different concentrations of 5-FU or 5-FC without protein treatment.
(§2) In this experiment, the MTT assay is applied to measure cytotoxicity induced by RGD4C-yCD/5-FC and RGD4C-yCD/UPRT/5-FC of the targeted prodrug enzyme fusion protein. In 96-well plate of seeded cells is respectively added with recombinant proteins such as 500 nM RGD4C-yCD, yCD, RGD4C-yCD/UPRT and yCD/UPRT, and co-cultured at 37° C. for 2 hours. The recombinant proteins not bound with cells are discarded. The cells were washed, and then were treated with different concentrations of 5-FC for observing the effect of cytotoxicity. On the other hand, the cells only treated with different concentrations of 5-FC and 5-FU separately as the control group.
In general terms: Formazan colour is commonly taken as a measure of viable cells.

In experiment [2] the test system is U87MG cells. The description is as above. Type of experiment: cell-based. The conditions noted are these: Homo sapiens, U-87 MG, 5-FU alone. As to the method: as §1, §2
Experiment [3] deals with MCF-7 cells. Described as above. The class given is cell-based, human. As to the method: as §1, §2
For the next experiment, the system named is HUVEC and U87MG cells. The experiment in a line: TUNEL apoptosis assay of yCD series fusion protein combined with 5-FC. The class given is cell-based, human. The settings on record: 500 nM protein, 100 μM 5-FC or 5-FU, 72 hours. As to the method:
FIGS. 9A-9D show the cell apoptosis assay of the yCD series fusion protein combined with 5-FC in HUVEC and U87MG cells. […] And then TUNEL assay kit was used to detect the cell apoptosis (red signal: DNA fragment detected by TUNEL assay kit; blue signal: Hoechst 33342 cell nuclear stain). Cells of the control groups were only incubated with different concentrations of 5-FU or 5-FC without protein treatment. […] (*P value<0.05; Calibration scale: 20 μm)
Previous literature pointed out that 5-FU can promote apoptosis by inhibiting the synthesis of cellular DNA. This experiment is performed on apoptosis analysis to evaluate whether the enzyme precursor treatment system of RGD4C-yCD/5-FC and RGD4C-yCD/UPRT/5-FC can kill the cells by apoptotic mechanism. HUVEC and U87MG cells are co-cultured with culture medium containing 500 nM RGD4C-yCD and RGD4C-yCD/UPRT protein for 2 hours at 37° C., remove and wash the unbound or endocytic proteins, add 100 μM 5-FC or 5-FU, after acting for 72 hours, the DNA fragment of the apoptosis is stained with fluorescence by TUNEL assay analysis set, and the apoptosis is observed by conjugated fluorescence microscope. […] Furtherly, TUNEL fluorescence signals are quantified by image analysis software MetaMorph. […]

The test system of experiment [4] is MCF-7 cells. The experiment in a line: MTT cytotoxic test of EcCD series fusion protein (50 nM) coupled with 5-FC. The conditions noted are these: Homo sapiens, MCF7, 5-FU alone, 72 hours. Type of experiment: cell-based. As to the method: (§3) Relative cell viability was measured by MTT assay. The 50 nM EcCD series fusion protein is applied to U87MG, HUVEC and MCF-7 cells at 37° C. for 2 hours, after washing the unbound protein with PBS.

Experiment [5] concerns U87MG cells. The description is as above. Type of experiment: cell-based. The conditions noted are these: Homo sapiens, U-87 MG, 5-FU alone, 72 hours. As to the method:
as §3

Experiment [6] deals with HUVEC cells. Described as above. The class given is cell-based, human. The settings on record: 5-FU alone. As to the method:
as §3

Broadly, the IC50 is the concentration that gives 50% inhibition. Turning to `O=c1[nH]cc(F)c(=O)[nH]1` [5-FU, 5-fluorouracil], the IC50 is 1.6 ± 0.2 µM with HUVEC cells [1]; 1.6 ± 0.3 µM in the experiment on U87MG cells [2]; 2.2 ± 0.3 µM in the experiment with MCF-7 cells [3] (5-FU alone); 2.1 ± 0.3 µM in the experiment on MCF-7 cells [3] (Homo sapiens, MCF7, 5-FU alone); 25.6 ± 0.3 µM in the experiment with MCF-7 cells [4]; 6.5 ± 0.2 µM in the experiment with U87MG cells [5]. Also, the IC50 in the experiment with HUVEC cells [6] (72 hours) was determined as 6.2 ± 1.3 µM; in the experiment with HUVEC cells [6] (Homo sapiens, 72 h) it was 6.5 ± 1.3 µM. In the experiment on HUVEC and U87MG cells, the “apoptosis (TUNEL, words)” value was “a large amount of apoptosis”.
